In patent US12473290B2, “Imidazopyridazine compounds useful as modulators of IL-12, IL-23 and/or IFN alpha responses” (BRISTOL-MYERS SQUIBB COMPANY, priority 2019, dated 2025):

Experiments:
Format in all cases: cell-based
[1] = test system: IFNα Kit225 Reporter (Kit225 T cells with a stably-integrated STAT-dependent luciferase reporter, stimulated with IFNα); test: Kit225 T Cell Assay, IFNα-stimulated STAT-dependent luciferase reporter; settings: 200 U/mL human recombinant IFNα, 5-6 hours, luciferase expression
In short: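 Kit225 T cells carrying a STAT-dependent luciferase reporter, in RPMI with 10% FBS, stimulated 5-6 h with 20 ng/mL human IL-23 or 200 U/mL human IFNα; luciferase luminescence read. Inhibition normalised to no-inhibitor (0%) and unstimulated (100%) wells; IC50 by non-linear regression.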

[2] = test system: IL-23 Kit225 Reporter (Kit225 T cells with a stably-integrated STAT-dependent luciferase reporter, stimulated with IL-23); test: Kit225 T Cell Assay, IL-23-stimulated STAT-dependent luciferase reporter; settings: 20 ng/mL human recombinant IL-23, 5-6 hours, luciferase expression
[3] = as above; settings: Kit225 T cells, 20 ng/mL human recombinant IL-23, 5-6 hours, luciferase expression

| Structure (SMILES) | IC50 [1] [nM] | IC50 [3] [nM] | IC50 [2] [nM] |
| --- | --- | --- | --- |
| N#Cc1cnc2c(Nc3ccc(C(=O)N4[C@H]5CC[C@@H]4CC5)c(OCC(F)F)n3)cc(NC3CCOCC3)nn12 [Example 46, 8-{[6-(2,2-difluoroethoxy)-5-[(1s,4s)-7-azabicyclo[2.2.1]heptane-7-carbonyl]pyridin-2-yl]amino}-6-[(oxan-4-yl)amino]imidazo[1,2-b]pyridazine-3-carbonitrile] | 360 | – | 60 |
| N#Cc1cnc2c(Nc3ccc(C(=O)N4CCCC4)c(OCC(F)(F)F)n3)cc(N[C@@H]3CCCC[C@H]3O)nn12 [Example 4, 6-{[(1R,2R)-2-hydroxycyclohexyl]amino}-8-{[5-(pyrrolidine-1-carbonyl)-6-(2,2,2-trifluoroethoxy)pyridin-2-yl]amino}imidazo[1,2-b]pyridazine-3-carbonitrile] | 520 | 460 | – |
| N#Cc1cnc2c(Nc3ccc(C(=O)N4CCCC4)c(N4CCCC4)n3)cc(N[C@@H]3CCCC[C@H]3O)nn12 [Example 2, 6-{[(1R,2R)-2-hydroxycyclohexyl]amino}-8-{[6-(pyrrolidin-1-yl)-5-(pyrrolidine-1-carbonyl)pyridin-2-yl]amino}imidazo[1,2-b]pyridazine-3-carbonitrile] | 690 | 280 | – |
| CC1(C)CCCN1C(=O)c1ccc(Nc2cc(N[C@@H]3CCCC[C@H]3O)nn3c(C#N)cnc23)nc1 [Example 16, 8-{[5-(2,2-dimethylpyrrolidine-1-carbonyl)pyridin-2-yl]amino}-6-{[(1R,2R)-2-hydroxycyclohexyl]amino}imidazo[1,2-b]pyridazine-3-carbonitrile] | 130 | 90 | – |
| CC(C)(C)C(=O)Nc1cccc(Nc2cc(N[C@@H]3CCCC[C@H]3O)nn3c(C#N)cnc23)n1 [Example 7, N-{6-[(3-cyano-6-{[(1R,2R)-2-hydroxycyclohexyl]amino}imidazo[1,2-b]pyridazin-8-yl)amino]pyridin-2-yl}-2,2-dimethylpropanamide] | 810 | 610 | – |

More lines, main results first:

| IC50 [1] [nM] | IC50 [3] [nM] | Structure (SMILES) | IC50 [2] [nM] |
| --- | --- | --- | --- |
| 850 | 670 | N#Cc1cnc2c(Nc3ccc(C(=O)N4CCCC4C(F)(F)F)c(OCC(F)F)n3)cc(N[C@@H]3CCCC[C@H]3O)nn12 (stereo partly drawn) [Example 33, 8-{[6-(2,2-difluoroethoxy)-5-[2-(trifluoromethyl)pyrrolidine-1-carbonyl]pyridin-2-yl]amino}-6-{[(1R,2R)-2-hydroxycyclohexyl]amino}imidazo[1,2-b]pyridazine-3-carbonitrile] | – |
| 380 | 140 | CCNc1nc(Nc2cc(N[C@H]3CCCC[C@@H]3O)nn3c(C#N)cnc23)ccc1C(=O)N1CCCC1 [Example 29, 8-{[6-(ethylamino)-5-(pyrrolidine-1-carbonyl)pyridin-2-yl]amino}-6-{[(1S,2S)-2-hydroxycyclohexyl]amino}imidazo[1,2-b]pyridazine-3-carbonitrile] | – |
| 760 | 500 | C[C@@H]1COC[C@H](C)N1C(=O)c1ccc(Nc2cc(N[C@H]3CCCC[C@@H]3O)nn3c(C#N)cnc23)nc1OCC(F)F [Example 36, 8-{[6-(2,2-difluoroethoxy)-5-[(3R,5S)-3,5-dimethylmorpholine-4-carbonyl]pyridin-2-yl]amino}-6-{[(1S,2S)-2-hydroxycyclohexyl]amino}imidazo[1,2-b]pyridazine-3-carbonitrile] | – |
| 760 | 670 | COCCNC(=O)c1ccc(Nc2cc(N[C@@H]3CCCC[C@H]3O)nn3c(C#N)cnc23)nc1N(C)C [Example 32, 6-[(3-cyano-6-{[(1R,2R)-2-hydroxycyclohexyl]amino}imidazo[1,2-b]pyridazin-8-yl)amino]-2-(dimethylamino)-N-(2-methoxyethyl)pyridine-3-carboxamide] | – |
| 500 | 350 | CC(=O)N1CCN(c2cccc(Nc3cc(N[C@@H]4CCCC[C@H]4O)nn4c(C#N)cnc34)n2)CC1 [Example 64, 8-{[6-(4-acetylpiperazin-1-yl)pyridin-2-yl]amino}-6-{[(1R,2R)-2-hydroxycyclohexyl]amino}imidazo[1,2-b]pyridazine-3-carbonitrile] | – |
| 450 | 340 | CC(C)(O)C(=O)Nc1cccc(Nc2cc(NC3CCOCC3)nn3c(C#N)cnc23)n1 [Example 25, N-[6-({3-cyano-6-[(oxan-4-yl)amino]imidazo[1,2-b]pyridazin-8-yl}amino)pyridin-2-yl]-2-hydroxy-2-methylpropanamide] | – |
